The values that follow are results of earlier work, collected in patent publication US20140356424A1, “COMPOSITION FOR TREATMENT OR REDUCTION OF SYMPTOMS RELATED TO PREMENSTRUAL SYNDROME (PMS), PREMENSTRUAL DISPHORIC DISORDER (PMDD), PREMENOPAUSE, MENOPAUSE OR FEMALE HORMONAL DISORDERS, IN A PHARMACEUTICAL COMPOSITION CONTAINING SAID FORM, AND PROCESS FOR PRODUCING SAID PHARMACEUTICAL FORM AND USE …” (EMS S.A., priority 2013, published 2014).

In data set [1] the test system is women with a diagnosis of PMS. Particulars: calcium carbonate 1.0 g/day, after three months.
The test system of a further data set is premenstrual symptoms. The following applies: daily supplement of 200 mg of magnesium (as MgO).

For `O=C([O-])[O-].[Ca+2]` [calcium carbonate], in data set [1], the “complaints of headache, anxiety, agitation and irritability” value was “significant changes were not observed”. Further, in data set [1] (placebo 52.3%), the “symptom of fatigue (questionnaire)” value is reported as 36%. In data set [1] (placebo 75%), the “symptom of changes in appetite (questionnaire)” value is listed as 52.7%.
With `[O]=[Mg]` [magnesium (as MgO), magnesium oxide], the “effect on severity of premenstrual symptoms” value in the data set on premenstrual symptoms is “reduced mild premenstrual symptoms”.
